Results taken from US20260262643A1, “HERBICIDAL BENZOXAZINES” (FMC CORPORATION, priority 2022, published 2026).

Experiments:
[1] = tested on: barnyardgrass; test: Test C postemergence; type: in vivo, Echinochloa crusgalli; details: 10 days
Procedure, shortened: (§1)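 Seeds sown in loam soil–sand blend received a directed preemergence soil spray of test chemical in non-phytotoxic solvent with surfactant; postemergence plants (2–10 cm, one- to two-leaf stage) were sprayed with the same formulation. Greenhouse-held 10 days, then visually rated for injury versus untreated controls, 0 (no effect) to 100 (complete control).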

[2] = tested on: kochia; test: Test C postemergence; type: in vivo, Bassia scoparia; details: 10 days
Procedure, shortened: as §1

[3] = tested on: sedge, umbrella; test: Test D flooded paddy test; type: in vivo, Cyperus difformis; details: 250 g ai/ha, applied to paddy water, visual rating after 13 to 14 days, scale 0 to 100 (0 no effect, 100 complete control)
Procedure, shortened: (§2)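 2-leaf plants; flood 3 cm above soil; compound dosed into paddy water; greenhouse 13–14 d; visual rating vs controls, 0–100 (100 = complete control); dash = not tested.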

[4] = tested on: pigweed, palmer; test: Test C postemergence; type: in vivo, Amaranthus palmeri; details: 10 days
Procedure, shortened: as §1

[5] = tested on: ryegrass, Italian; test: Test C postemergence; type: in vivo, Lolium multiflorum; details: 10 days
Procedure, shortened: as §1

[6] = tested on: ragweed; test: Test C postemergence; type: in vivo, Ambrosia artemisiifolia; details: 10 days
Procedure, shortened: as §1

[7] = tested on: pigweed, palmer; test: Test C preemergence; type: in vivo, Amaranthus palmeri; details: for Plant response rating, Pigweed, Palmer: Preemergence; for Pigweed, Palmer plant response rating: Test C, preemergence, 125 g ai/ha
Procedure, shortened: as §1

[8] = tested on: horseweed; test: Test C postemergence; type: in vivo, Erigeron canadensis; details: 10 days
Procedure, shortened: as §1

[9] = tested on: green foxtail; test: Test C postemergence; type: in vivo, Setaria viridis; details: 10 days
Procedure, shortened: as §1

[10] = tested on: green foxtail; test: Test C preemergence; type: in vivo, Setaria viridis; details: for Plant response rating, Foxtail, Green: Preemergence; for Foxtail, Green plant response rating: Test C, preemergence, 125 g ai/ha
Procedure, shortened: as §1

[11] = tested on: wheat; test: Test C preemergence; type: in vivo, Triticum aestivum; details: for Plant response rating, Wheat: Preemergence; for Wheat plant response rating: Test C, preemergence, 125 g ai/ha
Procedure, shortened: as §1

[12] = tested on: barnyardgrass; test: Test C preemergence; type: in vivo, Echinochloa crusgalli; details: for Plant response rating, Barnyardgrass: Preemergence; for Barnyardgrass plant response rating: Test C, preemergence, 125 g ai/ha
Procedure, shortened: as §1

[13] = tested on: blackgrass; test: Test C postemergence; type: in vivo, Alopecurus myosuroides; details: 10 days
Procedure, shortened: as §1

[14] = tested on: corn; test: Test C postemergence; type: in vivo, Zea mays; details: 10 days
Procedure, shortened: as §1

[15] = tested on: ragweed; test: Test C preemergence; type: in vivo, Ambrosia artemisiifolia; details: for Plant response rating, Ragweed: Preemergence; for Ragweed plant response rating: Test C, preemergence, 125 g ai/ha
Procedure, shortened: as §1

[16] = tested on: rice; test: Test D flooded paddy test; type: in vivo, Oryza sativa; details: 250 g ai/ha, applied to paddy water, visual rating after 13 to 14 days, scale 0 to 100 (0 no effect, 100 complete control)
Procedure, shortened: as §2

[17] = tested on: ducksalad; test: Test D flooded paddy test; type: in vivo, Heteranthera limosa; details: 250 g ai/ha, applied to paddy water, visual rating after 13 to 14 days, scale 0 to 100 (0 no effect, 100 complete control)
Procedure, shortened: as §2

[18] = tested on: corn; test: Test C preemergence; type: in vivo, Zea mays; details: for Plant response rating, Corn: Preemergence; for Corn plant response rating: Test C, preemergence, 125 g ai/ha
Procedure, shortened: as §1

[19] = tested on: soybean; test: Test C postemergence; type: in vivo, Glycine max; details: 10 days
Procedure, shortened: as §1

[20] = tested on: wheat; test: Test C postemergence; type: in vivo, Triticum aestivum; details: 10 days
Procedure, shortened: as §1

[21] = tested on: soybean; test: Test C preemergence; type: in vivo, Glycine max; details: for Plant response rating, Soybean: Preemergence; for Soybean plant response rating: Test C, preemergence, 125 g ai/ha
Procedure, shortened: as §1

[22] = tested on: galium; test: Test C postemergence; type: in vivo, Galium aparine; details: 10 days
Procedure, shortened: as §1

[23] = tested on: oat, wild; test: Test C preemergence; type: in vivo, Avena fatua; details: for Plant response rating, Oat, Wild: Preemergence; for Oat, Wild plant response rating: Test C, preemergence, 125 g ai/ha
Procedure, shortened: as §1

[24] = tested on: blackgrass; test: Test C preemergence; type: in vivo, Alopecurus myosuroides; details: for Plant response rating, Blackgrass: Preemergence; for Blackgrass plant response rating: Test C, preemergence, 125 g ai/ha
Procedure, shortened: as §1

[25] = tested on: kochia; test: Test C preemergence; type: in vivo, Bassia scoparia; details: for Plant response rating, Kochia: Preemergence; for Kochia plant response rating: Test C, preemergence, 125 g ai/ha
Procedure, shortened: as §1

[26] = tested on: oat, wild; test: Test C postemergence; type: in vivo, Avena fatua; details: 10 days
Procedure, shortened: as §1

[27] = tested on: barnyardgrass; test: Test D flooded paddy test; type: in vivo, Echinochloa crus-galli; details: 250 g ai/ha, applied to paddy water, visual rating after 13 to 14 days, scale 0 to 100 (0 no effect, 100 complete control)
Procedure, shortened: as §2

[28] = 125 g ai/ha, postemergence, 0 to 100 scale, 0 no effect, 100 complete control
[29] = Postemergence, 31 g ai/ha, 0 to 100 scale, 0 no effect, 100 complete control
[30] = 31 g ai/ha, 0 to 100 scale, 0 no effect, 100 complete control
[31] = 0 to 100 scale (0 no effect, 100 complete control)
[32] = Postemergence, 500 g ai/ha, visual 0 to 100 scale (0 no effect, 100 complete control)
[33] = 500 g ai/ha, visual rating after 10 days, 0 to 100 scale (0 no effect, 100 complete control)

Structure (SMILES): CCC(O)(CC)c1ncn(-c2ccc(C)c(C(=O)N3C[C@H](C)Oc4c(Cl)cccc43)c2)n1 [Compound 180]
- Plant response rating, Barnyardgrass [1, 28]: 20
- Plant response rating, Barnyardgrass [1, 29]: 10
- Plant response rating, Kochia [2, 28]: 50
- Plant response rating, Kochia [2, 29]: 30
- Plant response rating, Sedge, Umbrella (Flood) [3]: 40
- Plant response rating, Pigweed, Palmer [4, 28]: 70
- Plant response rating, Pigweed, Palmer [4, 29]: 30
- Plant response rating, Ryegrass, Italian [5, 28]: 50
- Plant response rating, Ryegrass, Italian [5, 29]: 0
- Plant response rating, Ragweed [6, 28]: 60
- Plant response rating, Ragweed [6, 29]: 40
- Plant response rating, Pigweed, Palmer [7, 30]: 0
- Pigweed, Palmer plant response rating [7, 31]: 60
- Plant response rating, Horseweed [8, 28]: 0
- Plant response rating, Horseweed [8, 29]: 0
- Plant response rating, Foxtail, Green [9, 28]: 20
- Plant response rating, Foxtail, Green [9, 29]: 10
- Plant response rating, Foxtail, Green [10, 30]: 30
- Foxtail, Green plant response rating [10, 31]: 70
- Plant response rating, Wheat [11, 30]: 0
- Wheat plant response rating [11, 31]: 0
- Plant response rating, Barnyardgrass [12, 30]: 0
- Barnyardgrass plant response rating [12, 31]: 60
- Plant response rating, Blackgrass [13, 28]: 10
- Plant response rating, Blackgrass [13, 29]: 0
- Plant response rating, Corn [14, 28]: 10
- Plant response rating, Corn [14, 29]: 0
- Plant response rating, Ragweed [15, 30]: 0
- Ragweed plant response rating [15, 31]: 20
- Plant response rating, Rice (Flood) [16]: 0
- Plant response rating, Ducksalad (Flood) [17]: 65
- Plant response rating, Corn [18, 30]: 0
- Corn plant response rating [18, 31]: 0
- Plant response rating, Soybean [19, 28]: 100
- Plant response rating, Soybean [19, 29]: 90
- Plant response rating, Wheat [20, 28]: 20
- Plant response rating, Wheat [20, 29]: 10
- Plant response rating, Soybean [21, 30]: 0
- Soybean plant response rating [21, 31]: 50
- Plant response rating, Galium [22, 28]: 90
- Plant response rating, Galium [22, 29]: 70
- Plant response rating, Oat, Wild [23, 30]: 0
- Oat, Wild plant response rating [23, 31]: 50
- Plant response rating, Blackgrass [24, 30]: 0
- Blackgrass plant response rating [24, 31]: 20
- Plant response rating, Kochia [25, 30]: 0
- Kochia plant response rating [25, 31]: 0
- Plant response rating, Oat, Wild [26, 28]: 70
- Plant response rating, Oat, Wild [26, 29]: 0
- Plant response rating, Barnyardgrass (Flood) [27]: 0

Structure (SMILES): CCc1c(C)cc(-n2cnc(C(C)C)n2)cc1C(=O)N1C[C@H](C)Oc2c(Cl)cccc21 [Compound 179]
- Plant response rating, Barnyardgrass [1, 28]: 10
- Plant response rating, Barnyardgrass [1, 32]: 10
- Plant response rating, Kochia [2, 28]: 30
- Plant response rating, Kochia [2, 32]: 30
- Plant response rating, Sedge, Umbrella (Flood) [3]: 0
- Plant response rating, Pigweed, Palmer [4, 28]: 10
- Plant response rating, Pigweed, Palmer [4, 32]: 60
- Plant response rating, Ryegrass, Italian [5, 28]: 0
- Plant response rating, Ryegrass, Italian [5, 32]: 20
- Plant response rating, Ragweed [6, 32]: 10
- Plant response rating, Pigweed, Palmer [7, 33]: 10
- Pigweed, Palmer plant response rating [7, 31]: 0
- Plant response rating, Horseweed [8, 28]: 0
- Plant response rating, Horseweed [8, 32]: 40
- Plant response rating, Foxtail, Green [9, 28]: 10
- Plant response rating, Foxtail, Green [9, 32]: 20
- Plant response rating, Foxtail, Green [10, 33]: 50
- Foxtail, Green plant response rating [10, 31]: 0
- Plant response rating, Wheat [11, 33]: 0
- Wheat plant response rating [11, 31]: 0
- Plant response rating, Barnyardgrass [12, 33]: 0
- Barnyardgrass plant response rating [12, 31]: 0
- Plant response rating, Blackgrass [13, 28]: 0
- Plant response rating, Blackgrass [13, 32]: 0
- Plant response rating, Corn [14, 28]: 0
- Plant response rating, Corn [14, 32]: 10
- Plant response rating, Ragweed [15, 33]: 0
- Ragweed plant response rating [15, 31]: 0
- Plant response rating, Rice (Flood) [16]: 0
- Plant response rating, Ducksalad (Flood) [17]: 0
- Plant response rating, Corn [18, 33]: 0
- Corn plant response rating [18, 31]: 0
- Plant response rating, Soybean [19, 32]: 40
- Plant response rating, Wheat [20, 28]: 10
- Plant response rating, Wheat [20, 32]: 10
- Plant response rating, Soybean [21, 33]: 0
- Soybean plant response rating [21, 31]: 0
- Plant response rating, Galium [22, 28]: 50
- Plant response rating, Galium [22, 32]: 90
- Plant response rating, Oat, Wild [23, 33]: 0
- Oat, Wild plant response rating [23, 31]: 0
- Plant response rating, Blackgrass [24, 33]: 0
- Blackgrass plant response rating [24, 31]: 0
- Plant response rating, Kochia [25, 33]: 0
- Kochia plant response rating [25, 31]: 0
- Plant response rating, Oat, Wild [26, 28]: 0
- Plant response rating, Oat, Wild [26, 32]: 0
- Plant response rating, Barnyardgrass (Flood) [27]: 0
